The values below come from publication PMC3290904 (Biochemistry, 2012).

Test [1] addresses AdiC (S26C mutant) (Salmonella enterica, UniProt P60066, C129S/C238S/C281S/C286S/C369S/C398S/C80S/C97S/S26C). As to the kind of experiment: competitive inhibition of […]-arginine uptake in oriented proteoliposomes. The class given is biochemical.
Test [2] deals with T1, AdiC (S26C mutant) (Salmonella enterica, UniProt P60066, S26C/C80S/C97S/C129S/C238S/C281S/C286S/C369S/C398S).
T1 sequence (P60066 1-445 S26C/C80S/C97S/C129S/C238S/C281S/C286S/C369S/C398S): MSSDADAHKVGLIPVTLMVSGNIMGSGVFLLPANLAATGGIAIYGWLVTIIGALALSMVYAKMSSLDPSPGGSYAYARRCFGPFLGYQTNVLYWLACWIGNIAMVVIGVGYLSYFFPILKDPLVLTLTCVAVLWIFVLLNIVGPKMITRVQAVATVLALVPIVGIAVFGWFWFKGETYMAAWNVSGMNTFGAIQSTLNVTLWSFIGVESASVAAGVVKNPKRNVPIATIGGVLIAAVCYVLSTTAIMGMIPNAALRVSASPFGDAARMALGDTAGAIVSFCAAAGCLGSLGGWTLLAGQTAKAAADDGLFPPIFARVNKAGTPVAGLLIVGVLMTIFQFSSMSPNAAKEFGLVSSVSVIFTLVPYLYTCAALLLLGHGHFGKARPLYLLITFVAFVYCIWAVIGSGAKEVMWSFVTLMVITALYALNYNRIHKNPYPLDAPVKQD
Nature of the test: isothermal titration calorimetry. The class given is binding. Background: ITC needs no label: the signal is the heat of the interaction.

The target of test [3] is AdiC (arginine-agmatine antiporter) (Salmonella enterica, UniProt P60066). Nature of the test: isothermal titration calorimetry. The class given is binding.

As for `N=C(N)NCCC[C@H](N)C(N)=O` [argininamide], in test [1], the affinity corresponds to a Ki of 1100 µM. `N=C(N)NCCC[C@H](N)C(=O)O` [arginine]: the Kd (as a rule, the concentration at which binding is half-saturated) in test [2] amounted to 22 ± 2 µM; in test [3], 32 µM.
